The structures appear in SMILES notation.

Sequence of GLP-1 Receptor (P43220 24-463, species assumed): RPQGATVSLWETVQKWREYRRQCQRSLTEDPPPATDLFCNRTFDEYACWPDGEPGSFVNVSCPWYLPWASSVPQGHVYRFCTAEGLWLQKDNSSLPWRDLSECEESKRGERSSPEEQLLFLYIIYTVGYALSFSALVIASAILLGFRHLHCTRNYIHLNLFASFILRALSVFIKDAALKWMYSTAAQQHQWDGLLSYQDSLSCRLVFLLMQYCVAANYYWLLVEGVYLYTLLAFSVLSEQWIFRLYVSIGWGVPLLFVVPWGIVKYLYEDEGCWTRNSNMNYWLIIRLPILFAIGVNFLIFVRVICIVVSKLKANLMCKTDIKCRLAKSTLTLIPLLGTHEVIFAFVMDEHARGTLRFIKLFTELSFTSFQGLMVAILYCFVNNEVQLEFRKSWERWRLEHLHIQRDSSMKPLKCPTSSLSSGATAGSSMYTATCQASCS

One assay deals with GLP-1 Receptor (Homo sapiens, UniProt P43220). Briefly: GLP-1R agonist cAMP stimulation assay (HEK293/GLP1R/CRE-LUC cells, cAMP dynamic 2 kit). Format: cell-based. The conditions noted are these: HEK293/CRE-Luc cell line stably expressing the GLP-1 Receptor; 30 min incubation at 37° C.; read-out: GLP1R cAMP Stimulation DR: EC50. The gist of the method:
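HEK293/CRE-Luc cells stably expressing human GLP-1R stimulated 30 min at 37 °C, 5% CO2. cAMP detected with HTRF cAMP-d2/anti-cAMP cryptate reagents after 1 h at room temperature; % activity normalised between vehicle and maximal control.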
On to `O=C(O)c1ccc2nc(CN3CC=C(c4cnc5ccc(Cc6ccc(Cl)cc6F)nn45)CC3)n(C[C@@H]3CCO3)c2n1` [Compound 192a, 2-[(4-{6-[(4-chloro-2-fluorophenyl)methyl]imidazo[1,2-b]pyridazin-3-yl}-1,2,3,6-tetrahydropyridin-1-yl)methyl]-3-{[(2S)-oxetan-2-yl]methyl}-3H-imidazo[4,5-b]pyridine-5-carboxylic acid], for which the EC50 turned out to be 130 nM.

With `O=C(O)c1ccc2nc(CN3CCC(Oc4cccc(Cc5ccc(Cl)cc5F)n4)C3)n(C[C@@H]3CCO3)c2n1` (stereo partly drawn) [Compound 130a, 2-{[3-({6-[(4-chloro-2-fluorophenyl)methyl]pyridin-2-yl}oxy)pyrrolidin-1-yl]methyl}-3-{[(2S)-oxetan-2-yl]methyl}-3H-imidazo[4,5-b]pyridine-5-carboxylic acid], the EC50 amounted to 53 nM.

For the molecule `O=C(O)c1ccc2nc(CN3CCC(Oc4cncc(Cc5ccc(Cl)cc5)n4)CC3)n(C[C@@H]3CCO3)c2n1` [Compound 153a, 2-{[4-({6-[(4-chlorophenyl)methyl]pyrazin-2-yl}oxy)piperidin-1-yl]methyl}-3-{[(2S)-oxetan-2-yl]methyl}-3H-imidazo[4,5-b]pyridine-5-carboxylic acid], the EC50 turned out to be 0.14 nM.

With `O=C(O)c1ccc2nc(CN3CCC(c4cccc5cn(Cc6ccc(Cl)cc6F)nc45)CC3)n(C[C@@H]3CCO3)c2n1` [Compound 142a, (S)-2-((4-(2-(4-chloro-2-fluorobenzyl)-2H-indazol-7-yl)piperidin-1-yl)methyl)-3-(oxetan-2-ylmethyl)-3H-imidazo[4,5-b]pyridine-5-carboxylic acid], the EC50 came out at 1.7 nM.

In the case of `O=C(O)c1ccc2nc(CN3CC4CC(Oc5ccnc(Cc6ccc(Cl)cc6)n5)CC4C3)n(C[C@@H]3CCO3)c2n1` (stereo partly drawn) [Compound 201a, 2-{[5-({2-[(4-chlorophenyl)methyl]pyrimidin-4-yl}oxy)-octahydrocyclopenta[c]pyrrol-2-yl]methyl}-3-{[(2S)-oxetan-2-yl]methyl}-3H-imidazo[4,5-b]pyridine-5-carboxylic acid], the EC50 turned out to be 360 nM.

With `O=C(O)c1ccc2nc(CN3CCC(Oc4nc(Cc5ccc(Cl)cc5)ncc4F)CC3)n(C[C@H]3CCOC3)c2n1` [Compound 197a, (R)-2-((4-((2-(4-chlorobenzyl)-5-fluoropyrimidin-4-yl)oxy)piperidin-1-yl)methyl)-3-((tetrahydrofuran-3-yl)methyl)-3H-imidazo[4,5-b]pyridine-5-carboxylic acid], the EC50 came to 2.5 nM.

Regarding `COCCn1c(C[C@H]2CC[C@H](Oc3ccnc(Cc4ccc(Cl)cc4)n3)CC2)nc2ccc(C(=O)O)nc21` [Compound 179a, 3-(2-methoxyethyl)-2-{[trans-4-({2-[(4-chlorophenyl)methyl]pyrimidin-4-yl}oxy)cyclohexyl]methyl}-3H-imidazo[4,5-b]pyridine-5-carboxylic acid], the EC50 amounted to 2.8 nM.

For `O=C(O)c1ccc2nc(CN3CCC(Oc4ccnc(Cc5ccc(Cl)cc5)n4)CC3)n(C[C@@H]3CCO3)c2n1` [Compound 152a, 2-{[4-({2-[(4-chlorophenyl)methyl]pyrimidin-4-yl}oxy)piperidin-1-yl]methyl}-3-{[(2S)-oxetan-2-yl]methyl}-3H-imidazo[4,5-b]pyridine-5-carboxylic acid], the EC50 worked out at 0.038 nM.

On to `O=C(O)c1ccc2nc(CN3CCC(Oc4nc(Cc5ccc(Cl)cc5F)ccc4F)CC3)n(C[C@@H]3CCO3)c2n1` [Compound 111a, 2-{[4-({6-[(4-chloro-2-fluorophenyl)methyl]-3-fluoropyridin-2-yl}oxy)piperidin-1-yl]methyl}-3-{[(2S)-oxetan-2-yl]methyl}-3H-imidazo[4,5-b]pyridine-5-carboxylic acid], for which the EC50 was found to be 0.29 nM.

Turning to `N#Cc1ccc(Cc2cccc(OC3CCN(Cc4nc5ccc(C(=O)O)cc5n4C[C@@H]4CCO4)CC3)n2)c(F)c1` [Compound 135a, 2-{[4-({6-[(4-cyano-2-fluorophenyl)methyl]pyridin-2-yl}oxy)piperidin-1-yl]methyl}-1-{[(2S)-oxetan-2-yl]methyl}-1H-1,3-benzodiazole-6-carboxylic acid], the EC50 was found to be 1.8 nM.

As for `O=C(O)c1ccc2nc(CN3CCC(Oc4ccnc(Cc5ccc(Cl)cc5F)n4)CC3)n(C[C@@H]3CCO3)c2n1` [Compound 113a, 2-{[4-({2-[(4-chloro-2-fluorophenyl)methyl]pyrimidin-4-yl}oxy)piperidin-1-yl]methyl}-3-{[(2S)-oxetan-2-yl]methyl}-3H-imidazo[4,5-b]pyridine-5-carboxylic acid], the EC50 was 0.038 nM.

Staying with this assay, now noted: HEK293/CRE-Luc cell line stably expressing the GLP-1 Receptor; 30 min incubation at 37° C.; read-out: GLP1R cAMP Stimulation DR: pEC50 (converted).
As for `O=C(O)c1ccc2nc(CN3CCC(Oc4cncc(Cc5ccc(Cl)cc5)n4)CC3)n(C[C@@H]3CCO3)c2n1` [Compound 153a, 2-{[4-({6-[(4-chlorophenyl)methyl]pyrazin-2-yl}oxy)piperidin-1-yl]methyl}-3-{[(2S)-oxetan-2-yl]methyl}-3H-imidazo[4,5-b]pyridine-5-carboxylic acid], the EC50 was 0.158 nM.

Values taken from US20230071840A1, “HETEROCYCLIC GLP-1 AGONISTS” (Gasherbrum Bio, Inc., priority 2020, published 2023).
